# In patent US20110190365A1, “Insecticidal 4-phenyl-1H-pyrazoles” (Bayer Crop Science AG, priority 2008, published 2011):
# Assay: log P by HPLC on a reversed-phase column (C18), EEC Directive 79/831 Annex V.A8
# Assay type: physicochemical
# Conditions: HCOOH
# Procedure: The stated log P values were determined in accordance with EEC Directive 79/831 Annex V.A8 by HPLC (High Performance Liquid Chromatography) using a reversed-phase column (C18).
row,Structure (SMILES),log P (HCOOH)
1,CNC(=O)c1ccc(-n2nc(C(F)(F)F)c(-c3cc(Cl)cc(Cl)c3)c2Br)nc1 [I-A-Q2-109],I-A-Q2-109: log P (HCOOH): 4.35
2,Nc1c(-c2ccc(Br)cc2)c(C(F)(F)F)nn1-c1ccc(C(=O)NCc2ccccn2)cc1 [I-A-Q2-191],I-A-Q2-191: log P (HCOOH): 2.57
3,Cc1cc(-n2nc(C(F)(F)F)c(-c3c(F)cc(F)cc3F)c2N)ccc1C(=O)NCC(F)(F)C(F)F [I-A-Q2-307],I-A-Q2-307: log P (HCOOH): 3.27
4,Nc1c(-c2ccc(Cl)c(Cl)c2)c(C(F)(F)F)nn1-c1ccc(C(=O)NCC(F)(F)F)cc1 [I-A-Q2-156],I-A-Q2-156: log P (HCOOH): 3.89
5,COC(=O)c1ccc(-n2nc(C(F)(F)F)c(Cl)c2N)cc1C [XI-A-081],XI-A-081: log P (HCOOH): 2.76
6,Cc1cc(-n2nc(C(F)(F)F)c(-c3cc(Cl)cc(Cl)c3)c2N)ccc1C(=O)NCc1ncccn1 [I-A-Q2-018],I-A-Q2-018: log P (HCOOH): 3.56
7,Cc1cc(-n2nc(C)c(-c3ccc(Cl)cc3)c2N)ccc1C(=O)NCC(F)(F)C(F)F [I-A-Q2-330],I-A-Q2-330: log P (HCOOH): 3.12
8,Cc1cc(-n2nc(C(F)(F)F)c(-c3ccccc3C)c2N)ccc1C(=O)NCc1ccccn1 [I-A-Q2-359],I-A-Q2-359: log P (HCOOH): 2.34
9,Cc1cc(-n2nc(C(F)(F)F)c(-c3ccccc3Cl)c2N)ccc1C(=O)NCC1CC1 [I-A-Q2-413],I-A-Q2-413: log P (HCOOH): 3.37
10,Nc1c(-c2ccc(Cl)c(F)c2)c(C(F)(F)F)nn1-c1ccc(C(=O)NCc2ccccn2)cc1 [I-A-Q2-171],I-A-Q2-171: log P (HCOOH): 2.53
11,CCC(C)NC(=O)c1ccc(-n2nc(C(F)(F)F)c(-c3cc(Cl)cc(Cl)c3)c2N)cc1 (centres unmarked) [I-A-Q2-145],I-A-Q2-145: log P (HCOOH): 4.34
12,Cc1cc(-n2nc(C(F)(F)F)c(-c3cc(Cl)cc(Cl)c3)c2N)ccc1C(=O)N(Cc1ccccn1)Cc1ccccn1 [I-A-Q2-199],I-A-Q2-199: log P (HCOOH): 3.48
13,COC(=O)c1ccc(-n2nc(C(F)(F)F)cc2N)cc1C [XI-A-080],XI-A-080: log P (HCOOH): 1.97
14,CC(NC(=O)c1ccc(-n2nc(C(F)(F)F)c(-c3cc(Cl)cc(Cl)c3)c2N)cc1)C(F)(F)F (centres unmarked) [I-A-Q2-133],I-A-Q2-133: log P (HCOOH): 4.44
15,CC(NC(=O)c1ccc(-n2nc(C(F)(F)F)c(-c3cccc(F)c3)c2N)cc1)c1ccccn1 (centres unmarked) [I-A-Q2-186],I-A-Q2-186: log P (HCOOH): 2.42
16,CCc1nn(-c2ccc(C(=O)NCC(F)(F)C(F)F)c(C)c2)c(N)c1-c1ccc(Cl)cc1 [I-A-Q2-339],I-A-Q2-339: log P (HCOOH): 3.27
17,Nc1c(-c2cc(Cl)cc(Cl)c2)c(C(F)(F)F)nn1-c1ccc(C(=O)NCC(F)(F)C(F)F)c(Cl)c1 [I-A-Q2-384],I-A-Q2-384: log P (HCOOH): 4.53

# Same assay, conditions: HCOOH; Table 4, compounds of formula I-A-Q4
row,Structure (SMILES),log P (HCOOH)
1,COc1ccc(-c2c(C)nn(-c3ccc(Cl)cn3)c2N)cc1 [I-A-Q4-061],I-A-Q4-061: log P (HCOOH): 3.58
2,CSc1c(-c2ccc(Cl)c(Cl)c2)c(C(F)(F)F)nn1-c1ncc(Cl)cn1 [I-A-Q4-020],I-A-Q4-020: log P (HCOOH): 5.22
3,Nc1c(-c2cccc(F)c2)c(C(F)(F)F)nn1-c1ccc(C(=O)O)cc1 [I-A-Q4-097],I-A-Q4-097: log P (HCOOH): 2.88

# Same assay, conditions: HPLC, reversed-phase C18, mobile phase with formic acid
row,Structure (SMILES),log P (HCOOH)
1,N#Cc1cnn(-c2ccc(-n3nc(C(F)(F)F)c(-c4cc(Cl)cc(Cl)c4)c3N)cc2C#N)c1 [I-A-Q1-079],I-A-Q1-079: log P (HCOOH): 4.28
2,N#Cc1cc(-n2nc(C(F)F)c(-c3ccc(F)cc3F)c2N)ccc1-n1cncn1 [I-A-Q1-048],I-A-Q1-048: log P (HCOOH): 2.39
3,N#Cc1cc(-n2nc(C(F)(F)F)c(-c3ccc(Br)cc3)c2N)ccc1-n1cncn1 [I-A-Q1-040],I-A-Q1-040: log P (HCOOH): 3.44
